# According to US10131652B2, “Pyrimidinyloxy benzene derivatives as herbicides” (E. I. DU PONT DE NEMOURS AND COMPANY, priority 2014, dated 2018):
# How the values were obtained:
# Test in all cases: Test D pre-/postemergence plant response
# Type in all cases: in vivo
# [1] = test system: Italian ryegrass (Lolium multiflorum)
# Method in brief: (§1)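 Each compound, in non-phytotoxic solvent with surfactant, was sprayed onto soil right after sowing or onto young plants 2 to 18 cm tall. After 13 to 15 days under greenhouse conditions, effects were judged visually against controls on a 0 (no effect) to 100 (complete control) scale.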
# [2] = test system: barnyardgrass (Echinochloa crus-galli)
# Method in brief: as §1
# [3] = test system: blackgrass (Alopecurus myosuroides)
# Method in brief: as §1
# corn (Zea mays) = test system: corn (Zea mays)
# Method in brief: as §1
# [4] = test system: galium (catchweed bedstraw, Galium aparine)
# Method in brief: as §1
# [5] = test system: giant foxtail (Setaria faberii)
# Method in brief: as §1
# [6] = test system: johnsongrass (Sorghum halepense)
# Method in brief: as §1
# [7] = test system: lambsquarters (Chenopodium album)
# Method in brief: as §1
# [8] = test system: large (Lg) crabgrass (Digitaria sanguinalis)
# Method in brief: as §1
# [9] = test system: morningglory (Ipomoea coccinea)
# Method in brief: as §1
# [10] = test system: oilseed rape (Brassica napus)
# Method in brief: as §1
# [11] = test system: pigweed (Amaranthus retroflexus)
# Method in brief: as §1
# [12] = test system: ragweed (common ragweed, Ambrosia elatior)
# Method in brief: as §1
# soybean (Glycine max) = test system: soybean (Glycine max)
# Method in brief: as §1
# [13] = test system: velvetleaf (Abutilon theophrasti)
# Method in brief: as §1
# [14] = test system: waterhemp (common waterhemp, Amaranthus rudis)
# Method in brief: as §1
# [15] = test system: winter wheat (Triticum aestivum)
# Method in brief: as §1
# [16] = test system: yellow nutsedge (Cyperus esculentus)
# Method in brief: as §1
# [17] = Postemergence, 31 g ai/ha, scale 0 to 100 (0 no effect, 100 complete control)
# [18] = Postemergence, 62 g ai/ha, scale 0 to 100, 0 no effect, 100 complete control
# [19] = Postemergence, 125 g ai/ha, scale 0 to 100, 0 no effect, 100 complete control
# [20] = Preemergence, 16 g ai/ha, scale 0 to 100 (0 no effect, 100 complete control)
# [21] = Preemergence, 31 g ai/ha, scale 0 to 100 (0 no effect, 100 complete control)
# [22] = Preemergence, 62 g ai/ha, scale 0 to 100 (0 no effect, 100 complete control)
smiles,measurement,setting,value
N#Cc1cccc(Oc2ncc(Cl)cn2)c1-c1cc(C(F)F)on1 [Compound 180],"Plant response rating (scale 0 to 100), Ryegrass, Italian","[1]; Postemergence, 16 g ai/ha",0
same,"Ryegrass, Italian plant response rating",[1]; [17],0
same,"Ryegrass, Italian plant response rating",[1]; [18],5
same,"Plant response rating, Ryegrass, Italian",[1]; [19],20
same,"Plant response rating (scale 0 to 100), Ryegrass, Italian","[1]; Preemergence, 125 g ai/ha",65
same,"Plant response rating, Ryegrass, Italian",[1]; [20],0
same,"Plant response rating, Ryegrass, Italian",[1]; [21],0
same,"Plant response rating, Ryegrass, Italian",[1]; [22],50
same,"Plant response rating (scale 0 to 100), Barnyardgrass","[2]; Postemergence, 16 g ai/ha",0
same,Barnyardgrass plant response rating,[2]; [17],0
same,"Plant response rating, Barnyardgrass",[2]; [18],5
same,"Plant response rating, Barnyardgrass",[2]; [19],5
same,"Plant response rating (scale 0 to 100), Barnyardgrass","[2]; Preemergence, 125 g ai/ha",80
same,"Plant response rating, Barnyardgrass",[2]; [20],0
same,"Plant response rating, Barnyardgrass",[2]; [21],0
same,"Plant response rating, Barnyardgrass",[2]; [22],35
same,"Plant response rating (scale 0 to 100), Blackgrass","[3]; Postemergence, 16 g ai/ha",0
same,Blackgrass plant response rating,[3]; [17],0
same,"Plant response rating, Blackgrass",[3]; [18],5
same,"Plant response rating, Blackgrass",[3]; [19],5
same,"Plant response rating (scale 0 to 100), Blackgrass","[3]; Preemergence, 125 g ai/ha",70
same,"Plant response rating, Blackgrass",[3]; [20],0
same,"Plant response rating, Blackgrass",[3]; [21],0
same,"Plant response rating, Blackgrass",[3]; [22],60
same,"Plant response rating (scale 0 to 100), Corn","corn (Zea mays); Postemergence, 16 g ai/ha",5
same,Corn plant response rating,corn (Zea mays); [17],5
same,"Plant response rating, Corn",corn (Zea mays); [18],10
same,"Plant response rating, Corn",corn (Zea mays); [19],15
same,"Plant response rating (scale 0 to 100), Corn","corn (Zea mays); Preemergence, 125 g ai/ha",30
same,"Plant response rating, Corn",corn (Zea mays); [20],0
same,"Plant response rating, Corn",corn (Zea mays); [21],0
same,"Plant response rating, Corn",corn (Zea mays); [22],5
same,"Plant response rating (scale 0 to 100), Galium","[4]; Postemergence, 16 g ai/ha",65
same,Galium plant response rating,[4]; [17],75
same,"Plant response rating, Galium",[4]; [18],100
same,"Plant response rating, Galium",[4]; [19],100
same,"Plant response rating (scale 0 to 100), Galium","[4]; Preemergence, 125 g ai/ha",98
same,"Plant response rating, Galium",[4]; [20],75
same,"Plant response rating, Galium",[4]; [21],80
same,"Plant response rating, Galium",[4]; [22],98
same,"Plant response rating (scale 0 to 100), Foxtail, Giant","[5]; Postemergence, 16 g ai/ha",60
same,"Foxtail, Giant plant response rating",[5]; [17],50
same,"Plant response rating, Foxtail, Giant",[5]; [18],30
same,"Plant response rating, Foxtail, Giant",[5]; [19],45
same,"Plant response rating (scale 0 to 100), Foxtail, Giant","[5]; Preemergence, 125 g ai/ha",100
same,"Plant response rating, Foxtail, Giant",[5]; [20],5
same,"Plant response rating, Foxtail, Giant",[5]; [21],60
same,"Plant response rating, Foxtail, Giant",[5]; [22],85
same,"Plant response rating (scale 0 to 100), Johnsongrass","[6]; Postemergence, 16 g ai/ha",0
same,Johnsongrass plant response rating,[6]; [17],0
same,"Plant response rating, Johnsongrass",[6]; [18],5
same,"Plant response rating, Johnsongrass",[6]; [19],5
same,"Plant response rating (scale 0 to 100), Johnsongrass","[6]; Preemergence, 125 g ai/ha",90
same,"Plant response rating, Johnsongrass",[6]; [20],0
same,"Plant response rating, Johnsongrass",[6]; [21],10
same,"Plant response rating, Johnsongrass",[6]; [22],60
same,"Plant response rating (scale 0 to 100), Lambsquarters","[7]; Postemergence, 16 g ai/ha",70
same,Lambsquarters plant response rating,[7]; [17],80
same,Lambsquarters plant response rating,[7]; [18],98
same,"Plant response rating, Lambsquarters",[7]; [19],98
same,"Plant response rating (scale 0 to 100), Lambsquarters","[7]; Preemergence, 125 g ai/ha",90
same,"Plant response rating, Lambsquarters",[7]; [20],95
same,"Plant response rating, Lambsquarters",[7]; [21],100
same,"Plant response rating, Lambsquarters",[7]; [22],100
same,"Plant response rating (scale 0 to 100), Crabgrass, Large","[8]; Postemergence, 16 g ai/ha",5
same,"Crabgrass, Large plant response rating",[8]; [17],5
same,"Plant response rating, Crabgrass, Large",[8]; [18],5
same,"Plant response rating, Crabgrass, Large",[8]; [19],5
same,"Plant response rating (scale 0 to 100), Crabgrass, Large","[8]; Preemergence, 125 g ai/ha",100
same,"Plant response rating, Crabgrass, Large",[8]; [20],30
same,"Plant response rating, Crabgrass, Large",[8]; [21],75
same,"Plant response rating, Crabgrass, Large",[8]; [22],100
same,"Plant response rating (scale 0 to 100), Morningglory","[9]; Postemergence, 16 g ai/ha",40
same,Morningglory plant response rating,[9]; [17],55
same,Morningglory plant response rating,[9]; [18],90
same,"Plant response rating, Morningglory",[9]; [19],90
same,"Plant response rating (scale 0 to 100), Morningglory","[9]; Preemergence, 125 g ai/ha",100
same,"Plant response rating, Morningglory",[9]; [20],0
same,"Plant response rating, Morningglory",[9]; [21],0
same,"Plant response rating, Morningglory",[9]; [22],5
same,"Plant response rating (scale 0 to 100), Oilseed Rape","[10]; Postemergence, 16 g ai/ha",5
same,Oilseed Rape plant response rating,[10]; [17],60
same,Oilseed Rape plant response rating,[10]; [18],80
same,"Plant response rating, Oilseed Rape",[10]; [19],90
same,"Plant response rating (scale 0 to 100), Oilseed Rape","[10]; Preemergence, 125 g ai/ha",100
same,"Plant response rating, Oilseed Rape",[10]; [20],70
same,"Plant response rating, Oilseed Rape",[10]; [21],95
same,"Plant response rating, Oilseed Rape",[10]; [22],100
same,"Plant response rating (scale 0 to 100), Pigweed","[11]; Postemergence, 16 g ai/ha",70
same,Pigweed plant response rating,[11]; [17],75
same,Pigweed plant response rating,[11]; [18],75
same,"Plant response rating, Pigweed",[11]; [19],98
same,"Plant response rating (scale 0 to 100), Pigweed","[11]; Preemergence, 125 g ai/ha",100
same,"Plant response rating, Pigweed",[11]; [20],80
same,"Plant response rating, Pigweed",[11]; [21],98
same,"Plant response rating, Pigweed",[11]; [22],100
same,"Plant response rating (scale 0 to 100), Ragweed","[12]; Postemergence, 16 g ai/ha",30
same,Ragweed plant response rating,[12]; [17],40
same,Ragweed plant response rating,[12]; [18],35
same,"Plant response rating, Ragweed",[12]; [19],65
same,"Plant response rating (scale 0 to 100), Ragweed","[12]; Preemergence, 125 g ai/ha",55
same,"Plant response rating, Ragweed",[12]; [20],0
same,"Plant response rating, Ragweed",[12]; [21],5
same,"Plant response rating, Ragweed",[12]; [22],15
same,"Plant response rating (scale 0 to 100), Soybean","soybean (Glycine max); Postemergence, 16 g ai/ha",45
same,Soybean plant response rating,soybean (Glycine max); [17],60
same,Soybean plant response rating,soybean (Glycine max); [18],70
same,"Plant response rating, Soybean",soybean (Glycine max); [19],85
same,"Plant response rating (scale 0 to 100), Soybean","soybean (Glycine max); Preemergence, 125 g ai/ha",80
same,"Plant response rating, Soybean",soybean (Glycine max); [20],5
same,"Plant response rating, Soybean",soybean (Glycine max); [21],25
same,"Plant response rating, Soybean",soybean (Glycine max); [22],60
same,"Plant response rating (scale 0 to 100), Velvetleaf","[13]; Postemergence, 16 g ai/ha",45
same,Velvetleaf plant response rating,[13]; [17],40
same,Velvetleaf plant response rating,[13]; [18],35
same,"Plant response rating, Velvetleaf",[13]; [19],55
same,"Plant response rating (scale 0 to 100), Velvetleaf","[13]; Preemergence, 125 g ai/ha",100
same,"Plant response rating, Velvetleaf",[13]; [20],75
same,"Plant response rating, Velvetleaf",[13]; [21],85
same,"Plant response rating, Velvetleaf",[13]; [22],90
same,"Plant response rating (scale 0 to 100), Waterhemp","[14]; Postemergence, 16 g ai/ha",40
same,Waterhemp plant response rating,[14]; [17],75
same,Waterhemp plant response rating,[14]; [18],90
same,"Plant response rating, Waterhemp",[14]; [19],98
same,"Plant response rating (scale 0 to 100), Waterhemp","[14]; Preemergence, 125 g ai/ha",100
same,"Plant response rating, Waterhemp",[14]; [20],40
same,"Plant response rating, Waterhemp",[14]; [21],95
same,"Plant response rating, Waterhemp",[14]; [22],95
same,"Plant response rating (scale 0 to 100), Wheat","[15]; Postemergence, 16 g ai/ha",5
same,Wheat plant response rating,[15]; [17],5
same,Wheat plant response rating,[15]; [18],15
same,"Plant response rating, Wheat",[15]; [19],30
same,"Plant response rating (scale 0 to 100), Wheat","[15]; Preemergence, 125 g ai/ha",30
same,"Plant response rating, Wheat",[15]; [20],0
same,"Plant response rating, Wheat",[15]; [21],0
same,"Plant response rating, Wheat",[15]; [22],0
same,"Plant response rating (scale 0 to 100), Nutsedge, Yellow","[16]; Postemergence, 16 g ai/ha",0
same,"Nutsedge, Yellow plant response rating",[16]; [17],0
same,"Nutsedge, Yellow plant response rating",[16]; [18],10
same,"Plant response rating, Nutsedge, Yellow",[16]; [19],15
same,"Plant response rating (scale 0 to 100), Nutsedge, Yellow","[16]; Preemergence, 125 g ai/ha",30
same,"Plant response rating, Nutsedge, Yellow",[16]; [20],0
same,"Plant response rating, Nutsedge, Yellow",[16]; [21],0
same,"Plant response rating, Nutsedge, Yellow",[16]; [22],0
